# Experiments:
# [1] = test system: giant foxtail; test: Test B pre/postemergence giant foxtail; assay type: in vivo, Setaria faberii; conditions: for Giant foxtail plant response rating: Postemergence; for Plant response rating, Giant foxtail: Preemergence
# How it was run: (§1)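 Herbicidal effect was estimated by eye on a ten-point control scale after plants spent twelve to sixteen days in a greenhouse following soil or foliar treatment. Foliar sprays targeted plants at one to four leaves; all doses were formulated in a non-phytotoxic solvent with surfactant.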
# [2] = test system: corn; test: Test B pre/postemergence corn; assay type: in vivo, Zea mays; conditions: for Corn plant response rating: Postemergence; for Plant response rating, Corn: Preemergence
# How it was run: as §1
# [3] = test system: morningglory; test: Test B pre/postemergence morningglory; assay type: in vivo, Ipomoea hederacea; conditions: for Morningglory plant response rating: Postemergence; for Plant response rating, Morningglory: Preemergence
# How it was run: as §1
# [4] = test system: pigweed; test: Test B pre/postemergence pigweed; assay type: in vivo, Amaranthus retroflexus; conditions: for Redroot pigweed plant response rating: Postemergence; for Plant response rating, Redroot pigweed: Preemergence
# How it was run: as §1
# [5] = test system: purple nutsedge; test: Test B pre/postemergence purple nutsedge; assay type: in vivo, Cyperus rotundus; conditions: for Nutsedge plant response rating: Postemergence; for Plant response rating, Nutsedge: Preemergence
# How it was run: as §1
# [6] = test system: sugar beet; test: Test B pre/postemergence sugar beet; assay type: in vivo, Beta vulgaris; conditions: for Sugarbeets plant response rating: Postemergence; for Plant response rating, Sugarbeets: Preemergence
# How it was run: as §1
# [7] = test system: bamyardgrass; test: Test B flood test barnyardgrass; assay type: in vivo, Echinochloa crus-galli
# How it was run: (§2)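 Flood test on plants grown to the 2-leaf stage; treated plants kept in greenhouse twelve to sixteen days, then visually rated against controls on a 0 (no effect) to 10 (complete control) scale.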
# [8] = test system: wheat; test: Test B pre/postemergence wheat; assay type: in vivo, Triticum aestivum; conditions: for Wheat plant response rating: Postemergence; for Plant response rating, Wheat: Preemergence
# How it was run: as §1
# [9] = test system: crabgrass; test: Test B pre/postemergence crabgrass; assay type: in vivo, Digitaria sanguinalis; conditions: for Crabgrass plant response rating: Postemergence; for Plant response rating, Crabgrass: Preemergence
# How it was run: as §1
# [10] = test system: rice; test: Test B flood test rice; assay type: in vivo, Oryza sativa
# How it was run: as §2
# [11] = test system: surinam grass; test: Test B pre/postemergence surinam grass; assay type: in vivo, Brachiaria decumbens; conditions: for B. signalgrass plant response rating: Postemergence; for Plant response rating, B. signalgrass: Preemergence
# How it was run: as §1
# [12] = test system: duck salad; test: Test B flood test duck salad; assay type: in vivo, Heteranthera limosa
# How it was run: as §2
# [13] = test system: rape; test: Test B pre/postemergence rape; assay type: in vivo, Brassica napus; conditions: for Rape plant response rating: Postemergence; for Plant response rating, Rape: Preemergence
# How it was run: as §1
# [14] = test system: wild oat; test: Test B pre/postemergence wild oat; assay type: in vivo, Avena fatua; conditions: for Wild oats plant response rating: Postemergence; for Plant response rating, Wild oats: Preemergence
# How it was run: as §1
# [15] = test system: smallflower flatsedge; test: Test B flood test smallflower flatsedge; assay type: in vivo, Cyperus difformis
# How it was run: as §2
# [16] = test system: blackgrass; test: Test B pre/postemergence blackgrass; assay type: in vivo, Alopecurus myosuroides; conditions: for Blackgrass plant response rating: Postemergence; for Plant response rating, Blackgrass: Preemergence
# How it was run: as §1
# [17] = test system: velvetleaf; test: Test B pre/postemergence velvetleaf; assay type: in vivo, Abutilon theophrasti; conditions: for Velvetleaf plant response rating: Postemergence; for Plant response rating, Velvetleaf: Preemergence
# How it was run: as §1
# [18] = test system: cocklebur; test: Test B pre/postemergence cocklebur; assay type: in vivo, Xanthium strumarium; conditions: for Cocklebur plant response rating: Postemergence; for Plant response rating, Cocklebur: Preemergence
# How it was run: as §1
# [19] = test system: soybean; test: Test B pre/postemergence soybean; assay type: in vivo, Glycine max; conditions: for Soybean plant response rating: Postemergence; for Plant response rating, Soybean: Preemergence
# How it was run: as §1
# [20] = test system: bedstraw; test: Test B pre/postemergence bedstraw; assay type: in vivo, Galium aparine; conditions: Postemergence
# How it was run: as §1
# [21] = Rate 125 g/ha, scale of 0 to 10 where 0 is no effect and 10 is complete control
# [22] = Rate 1000 g/ha, scale 0 to 10 (0 no effect, 10 complete control)
# [23] = Rate 500 g/ha, scale of 0 to 10 where 0 is no effect and 10 is complete control
# [24] = Rate 250 g/ha, scale 0 to 10, 0 is no effect, 10 is complete control
# [25] = Rate 500 g/ha, scale 0 to 10, 0 is no effect, 10 is complete control
# [26] = Rate 250 g/ha, scale 0 to 10 (0 no effect, 10 complete control)
# [27] = Pre-emergence, Rate 1000 g/ha, scale 0 to 10 (0 no effect, 10 complete control)
# [28] = Rate 125 g/ha, under heading Pre-emergence, flood test species, visual evaluation after twelve to sixteen days
# [29] = Rate 250 g/ha, Pre-emergence (flood test species), scale 0 to 10, 0 is no effect, 10 is complete control
# [30] = Rate 500 g/ha, Pre-emergence section of Table B, 0 to 10 scale (0 no effect, 10 complete control)
compound,measurement,setting,value
COC(=O)C(CCO)n1c(=O)on(C(=O)N(c2ccccc2)C(C)C)c1=O (centres unmarked) [Compound 678],Giant foxtail plant response rating,[1]; [21],0
same,Giant foxtail plant response rating,[1]; [22],7
same,"Plant response rating, Giant foxtail",[1]; [21],0
same,"Plant response rating, Giant foxtail",[1]; [23],4
same,Giant foxtail plant response rating,[1]; [24],1
same,Giant foxtail plant response rating,[1]; [25],6
same,"Plant response rating, Giant foxtail",[1]; [22],6
same,Corn plant response rating,[2]; [21],0
same,Corn plant response rating,[2]; [22],0
same,"Plant response rating, Corn",[2]; [21],0
same,"Plant response rating, Corn",[2]; [26],0
same,"Plant response rating, Corn",[2]; [23],0
same,Corn plant response rating,[2]; [24],0
same,Corn plant response rating,[2]; [25],0
same,"Plant response rating, Corn",[2]; [22],0
same,Morningglory plant response rating,[3]; [21],6
same,"Plant response rating, Morningglory",[3]; [21],0
same,"Plant response rating, Morningglory",[3]; [23],0
same,Morningglory plant response rating,[3]; [24],6
same,Morningglory plant response rating,[3]; [25],8
same,"Plant response rating, Morningglory",[3]; [22],1
same,Redroot pigweed plant response rating,[4]; [21],0
same,Redroot pigweed plant response rating,[4]; [22],5
same,"Plant response rating, Redroot pigweed",[4]; [21],0
same,"Plant response rating, Redroot pigweed",[4]; [23],0
same,Redroot pigweed plant response rating,[4]; [24],0
same,Redroot pigweed plant response rating,[4]; [25],2
same,"Plant response rating, Redroot pigweed",[4]; [22],4
same,Nutsedge plant response rating,[5]; [21],0
same,"Plant response rating, Nutsedge",[5]; [21],0
same,"Plant response rating, Nutsedge",[5]; [23],0
same,Nutsedge plant response rating,[5]; [24],0
same,Nutsedge plant response rating,[5]; [25],0
same,"Plant response rating, Nutsedge",[5]; [22],0
same,Sugarbeets plant response rating,[6]; [21],0
same,"Plant response rating, Sugarbeets",[6]; [21],0
same,"Plant response rating, Sugarbeets",[6]; [23],0
same,Sugarbeets plant response rating,[6]; [24],0
same,Sugarbeets plant response rating,[6]; [25],0
same,"Plant response rating, Sugarbeets",[6]; [22],0
same,Barnyardgrass plant response rating,[7]; [27],0
same,"Barnyardgrass plant response rating (0 to 10 scale, 0 is no effect, 10 is complete control)",[7]; [28],0
same,Barnyardgrass plant response rating,[7]; [29],0
same,Barnyardgrass plant response rating,[7]; [30],0
same,Wheat plant response rating,[8]; [21],0
same,"Plant response rating, Wheat",[8]; [21],0
same,"Plant response rating, Wheat",[8]; [23],0
same,Wheat plant response rating,[8]; [24],0
same,Wheat plant response rating,[8]; [25],0
same,"Plant response rating, Wheat",[8]; [22],0
same,Crabgrass plant response rating,[9]; [21],0
same,"Plant response rating, Crabgrass",[9]; [21],0
same,"Plant response rating, Crabgrass",[9]; [26],0
same,"Plant response rating, Crabgrass",[9]; [23],1
same,Crabgrass plant response rating,[9]; [24],0
same,Crabgrass plant response rating,[9]; [25],6
same,"Plant response rating, Crabgrass",[9]; [22],3
same,Rice plant response rating,[10]; [27],0
same,"Rice plant response rating (0 to 10 scale, 0 is no effect, 10 is complete control)",[10]; [28],0
same,Rice plant response rating,[10]; [29],0
same,Rice plant response rating,[10]; [30],0
same,B. signalgrass plant response rating,[11]; [21],0
same,B. signalgrass plant response rating,[11]; [22],4
same,"Plant response rating, B. signalgrass",[11]; [21],0
same,"Plant response rating, B. signalgrass",[11]; [26],0
same,"Plant response rating, B. signalgrass",[11]; [23],0
same,B. signalgrass plant response rating,[11]; [24],0
same,B. signalgrass plant response rating,[11]; [25],2
same,"Plant response rating, B. signalgrass",[11]; [22],0
same,Ducksalad plant response rating,[12]; [27],0
same,"Ducksalad plant response rating (0 to 10 scale, 0 is no effect, 10 is complete control)",[12]; [28],0
same,Ducksalad plant response rating,[12]; [29],0
same,Ducksalad plant response rating,[12]; [30],0
same,Rape plant response rating,[13]; [21],0
same,Rape plant response rating,[13]; [22],2
same,"Plant response rating, Rape",[13]; [21],0
same,"Plant response rating, Rape",[13]; [23],0
same,Rape plant response rating,[13]; [24],0
same,Rape plant response rating,[13]; [25],0
same,"Plant response rating, Rape",[13]; [22],0
same,Wild oats plant response rating,[14]; [21],0
same,"Plant response rating, Wild oats",[14]; [21],0
same,"Plant response rating, Wild oats",[14]; [23],0
same,Wild oats plant response rating,[14]; [24],0
same,Wild oats plant response rating,[14]; [25],0
same,"Plant response rating, Wild oats",[14]; [22],0
same,S. Flatsedge plant response rating,[15]; [27],0
same,"S. Flatsedge plant response rating (0 to 10 scale, 0 is no effect, 10 is complete control)",[15]; [28],0
same,S. Flatsedge plant response rating,[15]; [29],0
same,S. Flatsedge plant response rating,[15]; [30],0
same,Blackgrass plant response rating,[16]; [21],0
same,Blackgrass plant response rating,[16]; [22],6
same,"Plant response rating, Blackgrass",[16]; [21],0
same,"Plant response rating, Blackgrass",[16]; [26],0
same,"Plant response rating, Blackgrass",[16]; [23],0
same,Blackgrass plant response rating,[16]; [24],0
same,Blackgrass plant response rating,[16]; [25],3
same,"Plant response rating, Blackgrass",[16]; [22],1
same,Velvetleaf plant response rating,[17]; [21],0
same,"Plant response rating, Velvetleaf",[17]; [21],0
same,"Plant response rating, Velvetleaf",[17]; [23],2
same,Velvetleaf plant response rating,[17]; [24],0
same,Velvetleaf plant response rating,[17]; [25],3
same,"Plant response rating, Velvetleaf",[17]; [22],5
same,Cocklebur plant response rating,[18]; [21],0
same,Cocklebur plant response rating,[18]; [22],3
same,"Plant response rating, Cocklebur",[18]; [21],0
same,"Plant response rating, Cocklebur",[18]; [26],0
same,"Plant response rating, Cocklebur",[18]; [23],0
same,Cocklebur plant response rating,[18]; [24],0
same,Cocklebur plant response rating,[18]; [25],2
same,"Plant response rating, Cocklebur",[18]; [22],0
same,Soybean plant response rating,[19]; [21],1
same,"Plant response rating, Soybean",[19]; [21],0
same,"Plant response rating, Soybean",[19]; [23],0
same,Soybean plant response rating,[19]; [24],2
same,Soybean plant response rating,[19]; [25],2
same,"Plant response rating, Soybean",[19]; [22],0
same,Bedstraw plant response rating,[20]; [21],0
same,Bedstraw plant response rating,[20]; [22],0
same,Bedstraw plant response rating,[20]; [24],0
same,Bedstraw plant response rating,[20]; [25],0
